The record followed here is US10689354B2, “Aminoazole derivative” (Teijin Pharma Limited, priority 2015, dated 2020).

Assay [1] concerns the target T1, androgen receptor (AR-LBD) (Rattus norvegicus, UniProt P15207).
T1 construct: 5 μL of 2×AR-LBD/Fluoromone AL Red Complex contained in the kit; purchased Invitrogen
T1 sequence (P15207 651-882 limits assumed): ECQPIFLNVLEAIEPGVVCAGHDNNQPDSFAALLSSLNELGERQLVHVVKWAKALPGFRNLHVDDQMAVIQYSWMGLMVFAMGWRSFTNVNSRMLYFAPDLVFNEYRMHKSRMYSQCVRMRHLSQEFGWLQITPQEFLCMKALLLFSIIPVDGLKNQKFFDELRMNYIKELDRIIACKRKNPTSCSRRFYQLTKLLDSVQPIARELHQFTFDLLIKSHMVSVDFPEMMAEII
In words: Evaluation of androgen receptor affinity (PolarScreen Androgen Receptor Competitor Assay Kit, Red; fluorescence polarization). The settings on record: 22° C. for 5 hours, relative to binding rate of 1 μM DHT, read-out: AR affinity (pEC50) (converted). The method, boiled down: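 Duplicate wells of test compound were mixed with the kit's rat AR-LBD–Fluoromone AL Red tracer complex and left 5 hours at 22 °C before polarization was read. A 4-parameter fit gave pEC50, with binding rate referenced to 1 μM dihydrotestosterone.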
(In fluorescence polarisation assays a small probe gives low polarisation when free and higher when bound to something large.)

The target in a further assay is T2, human androgen receptor (Homo sapiens, UniProt P10275).
T2 construct: expressed in transfected cells; host or cells: HEK293
T2 sequence (P10275 1-920): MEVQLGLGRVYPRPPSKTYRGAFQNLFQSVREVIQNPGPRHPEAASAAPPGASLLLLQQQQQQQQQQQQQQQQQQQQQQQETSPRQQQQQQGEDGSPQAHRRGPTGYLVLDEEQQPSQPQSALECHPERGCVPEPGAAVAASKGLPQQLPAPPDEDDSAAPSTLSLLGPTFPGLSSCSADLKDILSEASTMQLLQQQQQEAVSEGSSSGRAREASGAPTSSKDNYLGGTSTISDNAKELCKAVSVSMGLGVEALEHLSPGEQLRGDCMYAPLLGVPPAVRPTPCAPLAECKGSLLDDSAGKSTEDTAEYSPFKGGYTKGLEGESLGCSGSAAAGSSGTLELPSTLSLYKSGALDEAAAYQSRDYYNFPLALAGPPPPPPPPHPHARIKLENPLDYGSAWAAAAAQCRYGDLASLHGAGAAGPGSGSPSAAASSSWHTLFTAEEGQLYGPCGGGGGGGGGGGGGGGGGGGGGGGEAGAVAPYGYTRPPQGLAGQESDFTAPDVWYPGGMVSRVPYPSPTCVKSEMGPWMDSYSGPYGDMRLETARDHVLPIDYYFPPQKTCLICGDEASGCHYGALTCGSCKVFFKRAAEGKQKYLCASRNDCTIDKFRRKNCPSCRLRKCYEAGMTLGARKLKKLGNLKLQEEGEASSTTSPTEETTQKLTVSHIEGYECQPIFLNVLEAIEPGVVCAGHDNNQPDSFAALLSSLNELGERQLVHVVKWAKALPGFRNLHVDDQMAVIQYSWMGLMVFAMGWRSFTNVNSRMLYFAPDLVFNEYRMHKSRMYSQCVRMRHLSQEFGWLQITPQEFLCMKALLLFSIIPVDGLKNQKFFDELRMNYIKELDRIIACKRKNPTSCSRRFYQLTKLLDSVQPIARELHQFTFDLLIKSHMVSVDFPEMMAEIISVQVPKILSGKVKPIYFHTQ
In words: Reporter assay of an androgen receptor responsive sequence (luciferase, transiently transfected HEK293 cells). The format is cell-based. The settings on record: 24 hours incubation, relative to activity of 100 nM DHT, read-out: AR transcriptive activity (pEC50) (converted). Here is the method: Reporter Assay of an Androgen Receptor Responsive Sequence
To examine the agonist activity of compounds for androgen, a reporter assay using an androgen receptor responsive sequence was conducted.
Using Lipofectamine 2000 (Invitrogen), a plasmid mixture (pGL4-ARE (200 ng/well), pcDNA3-hAR (20 ng/well), pRL-TK (Promega) (150 ng/well)) was transiently transfected into HEK293 cells. The contents of the plasmid (mixture) are as follows:
pGL4-ARE is a reporter plasmid containing firefly luciferase sequence under the control of androgen receptor responsive sequence; pcDNA3-hAR is a plasmid containing full-length sequence of human androgen receptor under the constant control of CMV promoter; pRL-TK is a plasmid containing Renilla Luciferase sequence under the control of herpes simplex virus thymidine kinase and used as an internal standard for evaluations of transfection efficiency and compound toxicity.
After the incubation of Lipofectamine 2000 and the plasmid mixture in Opti-MEM for 20 minutes, the mixture was mixed with a cell suspension prepared with Opti-MEM in the similar way, and the cell suspension was plated to a 96-well plate at 20000 cells/well. The transfection was conducted by incubating the plates under the condition of 5% CO2 at 37° C. for 3 hours. Three hours after the transfection, the culture medium was removed and a compound solution prepared by DMEM supplemented with 5% FBS and treated with charcoal was added, and the mixture was incubated under the condition of 5% CO2 at 37° C. for 24 hours. After the incubation with the compound, luciferase activities were measured with a luminometer using Dual-Glo™ Luciferase Assay System (Promega). The measurement of the luciferase activities was performed in accordance with the protocol recommended by Promega. The activity of the compound was determined by comparing to the activity of 100 nM of DHT, and quantified the logarithm value (pEC50) of reciprocal value of the effective concentration of the compound which is equal to 50% of the activity value by applying a 4 parameter goodness-of-fit calculation.
(Reporter assays use an easily measured gene product as a stand-in for the process of interest.)

As for `Cc1sc(N(Cc2ccccc2)c2ccc3nccnc3c2)nc1C(=O)NS(C)(=O)=O` [Compound 744, 2-[benzyl(quinoxalin-6-yl)amino]-5-methyl-N-methylsulfonyl-thiazole-4-carboxamide], the EC50 is 316 nM in assay [1] and 1260 nM at human androgen receptor.

Regarding `COCCCS(=O)(=O)NC(=O)c1nc(N(Cc2ccc(Cl)cn2)c2ccc(C#N)cc2)sc1C` [Compound 163, 2-[N-[(5-chloro-2-pyridyl)methyl]-4-cyano-anilino]-N-(3-methoxypropylsulfonyl)-5-methyl-thiazole-4-carboxamide], the EC50 is 200 nM in assay [1] and 251 nM on human androgen receptor.

For `Cc1oc(N(CCc2ccc(Cl)cc2)Cc2ccc(OC(F)(F)F)cc2)nc1C(=O)NS(C)(=O)=O` [Compound 544, 2-[2-(4-chlorophenyl)ethyl-[[4-(trifluoromethoxy)phenyl]methyl]amino]-5-methyl-N-methylsulfonyl-oxazole-4-carboxamide], the EC50 in assay [1] is 39.8 nM; on human androgen receptor, 316 nM.

For `Cc1sc(N(Cc2ccc(F)c(Cl)c2)c2ccc(C#N)cc2)nc1C(=O)NS(C)(=O)=O` [Compound 117, 2-[N-[(3-chloro-4-fluoro-phenyl)methyl]-4-cyano-anilino]-5-methyl-N-methylsulfonyl-thiazole-4-carboxamide], the EC50 is 25.1 nM in assay [1] and 63.1 nM on human androgen receptor.

On to `Cc1oc(N(CCc2ccc(OC(F)(F)F)cc2)Cc2ccc(C(F)(F)F)nc2)nc1C(=O)NS(C)(=O)=O` [Compound 562, 5-methyl-N-methylsulfonyl-2-[2-[4-(trifluoromethoxy)phenyl]ethyl-[[6-(trifluoromethyl)-3-pyridyl]methyl]amino]oxazole-4-carboxamide], for which the EC50 in assay [1] was 39.8 nM; at human androgen receptor, 794 nM.

For `COCCCS(=O)(=O)NC(=O)c1nc(N(Cc2ccc(F)cc2)c2ccc(C#N)cc2)sc1C` [Compound 499, 2-[4-cyano-N-[(4-fluorophenyl)methyl]anilino]-N-(3-methoxypropylsulfonyl)-5-methyl-thiazole-4-carboxamide], the EC50 in assay [1] is 39.8 nM; on human androgen receptor, 158 nM.

As for `CCc1oc(N(Cc2ccc(C(F)(F)F)c(F)c2)c2ccc(C#N)cc2)nc1C(=O)NS(C)(=O)=O` [Compound 655, 2-[4-cyano-N-[[3-fluoro-4-(trifluoromethyl)phenyl]methyl]anilino]-5-ethyl-N-methylsulfonyl-oxazole-4-carboxamide], the figures for the EC50 (in assay [1]; on human androgen receptor) were 39.8 nM and 398 nM, respectively.

Turning to `Cc1sc(N(CCC2CCCC2)Cc2ccccc2)nc1C(=O)NS(C)(=O)=O` [Compound 683, 2-[benzyl(2-cyclopentylethyl)amino]-5-methyl-N-methylsulfonyl-thiazole-4-carboxamide], the results for the EC50 (in assay [1]; at human androgen receptor) were 100 nM and above 10000 nM, respectively.

For `Cc1oc(N(Cc2ccccc2OC(F)F)c2ccc(C#N)cc2)nc1C(=O)NS(C)(=O)=O` [Compound 614, 2-[4-cyano-N-[[2-(difluoromethoxy)phenyl]methyl]anilino]-5-methyl-N-methylsulfonyl-oxazole-4-carboxamide], the EC50 in assay [1] is 200 nM; on human androgen receptor, above 10000 nM.

For the compound `CCc1oc(N(Cc2ccc(Br)c(F)c2)c2ccc(C#N)cc2)nc1C(=O)NS(C)(=O)=O` [Compound 652, 2-[N-[(4-bromo-3-fluoro-phenyl)methyl]-4-cyano-anilino]-5-ethyl-N-methylsulfonyl-oxazole-4-carboxamide], the EC50 was 25.1 nM in assay [1] and 158 nM at human androgen receptor.

Turning to `Cc1oc(N(CCc2ccc(Cl)cc2)Cc2ccc(F)cc2)nc1C(=O)NS(C)(=O)=O` [Compound 550, 2-[2-(4-chlorophenyl)ethyl-[(4-fluorophenyl)methyl]amino]-5-methyl-N-methylsulfonyl-oxazole-4-carboxamide], the EC50 was 63.1 nM in assay [1] and 251 nM at human androgen receptor.

Turning to `CNC(=O)c1ccc(CCN(Cc2ccccc2)c2nc(C(=O)NS(C)(=O)=O)c(C)s2)cc1` [Compound 738, 2-[benzyl-[2-[4-(methylcarbamoyl)phenyl]ethyl]amino]-5-methyl-N-methylsulfonyl-thiazole-4-carboxamide], the EC50 is 501 nM in assay [1] and 6310 nM on human androgen receptor.

In the case of `Cc1oc(N(CCC2CCCC2)c2ccc(C#N)cc2)nc1C(=O)NS(C)(=O)=O` [Compound 622, 2-[4-cyano-N-(2-cyclopentylethyl)anilino]-5-methyl-N-methylsulfonyl-oxazole-4-carboxamide], the EC50 in assay [1] is 79.4 nM; on human androgen receptor, above 10000 nM.

As to `Cc1sc(N(CCc2ccccc2)c2ccc(C#N)cc2)nc1C(=O)NS(C)(=O)=O` [Compound 52, 2-[4-cyano-N-(2-phenylethyl)anilino]-5-methyl-N-methylsulfonyl-thiazole-4-carboxamide], the figures for the EC50 (in assay [1]; at human androgen receptor) were 398 nM and 2510 nM, respectively.

As for `CCC(CC)CN(c1ccc(C#N)cc1)c1nc(C(=O)NS(C)(=O)=O)c(C)s1` [Compound 65, 2-[4-cyano-N-(2-ethylbutyl)anilino]-5-methyl-N-methylsulfonyl-thiazole-4-carboxamide], the EC50 in assay [1] was 126 nM; on human androgen receptor, above 10000 nM.

Regarding `Cc1sc(N(Cc2cc(F)ccc2Cl)c2ccc(C#N)cc2)nc1C(=O)NS(C)(=O)=O` [Compound 108, 2-[N-[(2-chloro-5-fluoro-phenyl)methyl]-4-cyano-anilino]-5-methyl-N-methylsulfonyl-thiazole-4-carboxamide], the values for the EC50 (in assay [1]; at human androgen receptor) were 100 nM and 501 nM, respectively.

Consider `Cc1sc(N(CCC2CCCC(O)C2)c2ccc(C#N)cc2)nc1C(=O)NS(C)(=O)=O` (centres unmarked) [Compound 442, 2-[4-cyano-N-[2-(3-hydroxycyclohexyl)ethyl]anilino]-5-methyl-N-methylsulfonyl-thiazole-4-carboxamide], for which the EC50 in assay [1] was 316 nM; at human androgen receptor, 1260 nM.

For the compound `Cc1sc(N(Cc2ccc(OC(F)(F)F)cc2F)c2ccc(C#N)cc2)nc1C(=O)NS(C)(=O)=O` [Example 178, 2-[4-cyano-N-[[2-fluoro-4-(trifluoromethoxy)phenyl]methyl]anilino]-5-methyl-N-methylsulfonyl-thiazole-4-carboxamide], the EC50 in assay [1] was 39.8 nM; on human androgen receptor, 501 nM.

On to `Cc1sc(N(CCc2ccc(C#N)cc2)Cc2ccc(OC(F)(F)F)cc2)nc1C(=O)NS(=O)(=O)Cc1cccc(F)c1` [Compound 727, 2-[2-(4-cyanophenyl)ethyl-[[4-(trifluoromethoxy)phenyl]methyl]amino]-N-[(3-fluorophenyl)methylsulfonyl]-5-methyl-thiazole-4-carboxamide], for which the EC50 was 200 nM in assay [1] and above 10000 nM on human androgen receptor.
